From patent publication US20260223897A1, “SIAMENOSIDE I SWEETENED BEVERAGES WITH MOGROSIDE BLENDS” (The Coca-Cola Company, priority 2023, published 2026)

experiment: Taste of blends with siamenoside I, findings summarised in the description; conditions: blended with siamenoside I in certain ratios

Compound	taste attributes when blended with siamenoside I vs siamenoside I only sweetened beverages
C[C@H](CC[C@@H](O[C@@H]1O[C@H](CO[C@@H]2O[C@H](CO)[C@@H](O)[C@H](O)[C@H]2O)[C@@H](O)[C@H](O)[C@H]1O[C@@H]1O[C@H](CO)[C@@H](O)[C@H](O)[C@H]1O)C(C)(C)O)[C@H]1CC[C@@]2(C)C3CC=C4[C@@H](CC[C@H](O[C@@H]5O[C@H](CO)[C@@H](O[C@@H]6O[C@H](CO)[C@@H](O)[C@H](O)[C@H]6O)[C@H](O)[C@H]5O)C4(C)C)[C@]3(C)C(=O)C[C@]12C (stereo partly drawn) [11-Oxoisomogroside V, 11- Oxoisomogroside V]	less objectionable taste attributes
C[C@H](CC[C@@H](O[C@@H]1O[C@H](CO[C@@H]2O[C@H](CO)[C@@H](O)[C@H](O)[C@H]2O)[C@@H](O)[C@H](O)[C@H]1O)C(C)(C)O)[C@H]1CC[C@@]2(C)C3CC=C4[C@@H](CC[C@H](O[C@@H]5O[C@H](CO)[C@@H](O)[C@H](O)[C@H]5O)C4(C)C)[C@]3(C)C(=O)C[C@]12C (stereo partly drawn) [11-Oxomogroside III]	less objectionable taste attributes
C[C@H](CC[C@@H](O[C@@H]1O[C@H](CO[C@@H]2O[C@H](CO)[C@@H](O)[C@H](O)[C@H]2O)[C@@H](O)[C@H](O)[C@H]1O[C@@H]1O[C@H](CO)[C@@H](O)[C@H](O)[C@H]1O)C(C)(C)O)[C@H]1CC[C@@]2(C)C3CC=C4[C@@H](CC[C@H](O[C@@H]5O[C@H](CO[C@@H]6O[C@H](CO)[C@@H](O)[C@H](O)[C@H]6O)[C@@H](O)[C@H](O)[C@H]5O)C4(C)C)[C@]3(C)[C@H](O)C[C@]12C (stereo partly drawn) [11-Oxomogroside V]	less objectionable taste attributes
C[C@H](CC[C@@H](O[C@@H]1O[C@H](CO[C@@H]2O[C@H](CO)[C@@H](O)[C@H](O)[C@H]2O)[C@@H](O)[C@H](O)[C@H]1O[C@@H]1O[C@H](CO)[C@@H](O)[C@H](O)[C@H]1O)C(C)(C)O)[C@H]1CC[C@@]2(C)C3CC=C4[C@@H](CC[C@H](O[C@@H]5O[C@H](CO)[C@@H](O[C@@H]6O[C@H](CO)[C@@H](O)[C@H](O)[C@H]6O)[C@H](O)[C@H]5O)C4(C)C)[C@]3(C)[C@H](O)C[C@]12C (stereo partly drawn) [Isomogroside V]	less objectionable taste attributes
C[C@H](CC[C@@H](O[C@@H]1O[C@H](CO)[C@@H](O)[C@H](O)[C@H]1O)C(C)(C)O)[C@H]1CC[C@@]2(C)C3CC=C4[C@@H](CC[C@H](O[C@@H]5O[C@H](CO)[C@@H](O)[C@H](O)[C@H]5O)C4(C)C)[C@]3(C)[C@H](O)C[C@]12C (stereo partly drawn) [Mogroside IIE]	less objectionable taste attributes

same assay, conditions: in certain blends

Compound	perception of bitterness in blends
C[C@H](CC[C@@H](O[C@@H]1O[C@H](CO[C@@H]2O[C@H](CO)[C@@H](O)[C@H](O)[C@H]2O)[C@@H](O)[C@H](O)[C@H]1O)C(C)(C)O)[C@H]1CC[C@@]2(C)C3CC=C4[C@@H](CC[C@H](O)C4(C)C)[C@]3(C)C(=O)C[C@]12C (stereo partly drawn) [11-Oxomogroside IIA1]	increase the perception of bitterness
C[C@H](CC[C@@H](O)C(C)(C)O)[C@H]1CC[C@@]2(C)[C@@H]3CC=C4[C@@H](CC[C@H](O[C@@H]5O[C@H](CO[C@@H]6O[C@H](CO)[C@@H](O)[C@H](O)[C@H]6O)[C@@H](O)[C@H](O)[C@H]5O)C4(C)C)[C@]3(C)C(=O)C[C@]12C [11-Oxomogroside IIA2]	increase the perception of bitterness
C[C@H](CC[C@@H](O[C@@H]1O[C@H](CO)[C@@H](O)[C@H](O)[C@H]1O[C@@H]1O[C@H](CO)[C@@H](O)[C@H](O)[C@H]1O)C(C)(C)O)[C@H]1CC[C@@]2(C)[C@@H]3CC=C4[C@@H](CC[C@H](O)C4(C)C)[C@]3(C)C(=O)C[C@]12C [11-Oxomogroside IIA]	increase the perception of bitterness
C[C@H](CC[C@@H](O[C@@H]1O[C@H](CO)[C@@H](O)[C@H](O)[C@H]1O)C(C)(C)O)[C@H]1CC[C@@]2(C)C3CC=C4[C@@H](CC[C@H](O[C@@H]5O[C@H](CO)[C@@H](O)[C@H](O)[C@H]5O)C4(C)C)[C@]3(C)C(=O)C[C@]12C (stereo partly drawn) [11-Oxomogroside IIE]	increase the perception of bitterness
C[C@H](CC[C@@H](O[C@@H]1O[C@H](CO[C@@H]2O[C@H](CO)[C@@H](O)[C@H](O)[C@H]2O)[C@@H](O)[C@H](O)[C@H]1O)C(C)(C)O)[C@H]1CC[C@@]2(C)C3CC=C4[C@@H](CC[C@H](O[C@@H]5O[C@H](CO)[C@@H](O)[C@H](O)[C@H]5O)C4(C)C)[C@]3(C)C(=O)C[C@]12C (stereo partly drawn) [11-Oxomogroside III]	increase the perception of bitterness
C[C@H](CC[C@@H](O[C@@H]1O[C@H](CO)[C@@H](O)[C@H](O)[C@H]1O)C(C)(C)O)[C@H]1CC[C@@]2(C)C3CC=C4[C@@H](CC[C@H](O)C4(C)C)[C@]3(C)[C@H](O)C[C@]12C (stereo partly drawn) [Mogroside IA]	increase the perception of bitterness
C[C@H](CC[C@@H](O)C(C)(C)O)[C@H]1CC[C@@]2(C)C3CC=C4[C@@H](CC[C@H](O[C@@H]5O[C@H](CO)[C@@H](O)[C@H](O)[C@H]5O)C4(C)C)[C@]3(C)[C@H](O)C[C@]12C (stereo partly drawn) [Mogroside IE]	increase the perception of bitterness
C[C@H](CC[C@@H](O[C@@H]1O[C@H](CO[C@@H]2O[C@H](CO)[C@@H](O)[C@H](O)[C@H]2O)[C@@H](O)[C@H](O)[C@H]1O)C(C)(C)O)[C@H]1CC[C@@]2(C)C3CC=C4[C@@H](CC[C@H](O)C4(C)C)[C@]3(C)[C@H](O)C[C@]12C (stereo partly drawn) [Mogroside IIA1]	increase the perception of bitterness
C[C@H](CC[C@@H](O)C(C)(C)O)[C@H]1CC[C@@]2(C)[C@@H]3CC=C4[C@@H](CC[C@H](O[C@@H]5O[C@H](CO[C@@H]6O[C@H](CO)[C@@H](O)[C@H](O)[C@H]6O)[C@@H](O)[C@H](O)[C@H]5O)C4(C)C)[C@]3(C)[C@H](O)C[C@]12C [Mogroside IIA2]	increase the perception of bitterness
C[C@H](CC[C@@H](O[C@@H]1O[C@H](CO)[C@@H](O)[C@H](O)[C@H]1O[C@@H]1O[C@H](CO)[C@@H](O)[C@H](O)[C@H]1O)C(C)(C)O)[C@H]1CC[C@@]2(C)[C@@H]3CC=C4[C@@H](CC[C@H](O)C4(C)C)[C@]3(C)[C@H](O)C[C@]12C [Mogroside IIA]	increase the perception of bitterness
C[C@H](CC[C@@H](O[C@@H]1O[C@H](CO)[C@@H](O)[C@H](O)[C@H]1O)C(C)(C)O)[C@H]1CC[C@@]2(C)C3CC=C4[C@@H](CC[C@H](O[C@@H]5O[C@H](CO[C@@H]6O[C@H](CO)[C@@H](O)[C@H](O)[C@H]6O)[C@@H](O)[C@H](O)[C@H]5O)C4(C)C)[C@]3(C)[C@H](O)C[C@]12C (stereo partly drawn) [Mogroside IIIA2]	increase the perception of bitterness

same assay, conditions: when present in certain amounts in blends with siamenoside I

Compound	impact on bitterness in blends with siamenoside I
11-oxomogroside I	do not impact bitterness
C[C@H](CC[C@@H](O[C@@H]1O[C@H](CO)[C@@H](O)[C@H](O)[C@H]1O[C@@H]1O[C@H](CO)[C@@H](O)[C@H](O)[C@H]1O)C(C)(C)O)[C@H]1CC[C@@]2(C)C3CC=C4[C@@H](CC[C@H](O[C@@H]5O[C@H](CO)[C@@H](O)[C@H](O)[C@H]5O)C4(C)C)[C@]3(C)[C@H](O)C[C@]12C (stereo partly drawn) [Mogroside IIIE]	do not impact bitterness
